For assay [1], the system named is Trypanosoma brucei. The assay can be described thus: Inhibition of blood stream form of trypanothione synthase single knockout Trypanosoma brucei after 72 hrs. The assay is classed as functional, organism-based.
Assay [2] has as its system Trypanosoma brucei. The assay can be described thus: Inhibition of blood stream form of Trypanosoma brucei overexpressing trypanothione synthase after 72 hrs. It is filed as functional, organism-based.
The subject of assay [3] is Trypanosoma brucei. The assay can be described thus: Inhibition of wild type blood stream form of Trypanosoma brucei expressing trypanothione synthase after 72 hrs. It is filed as functional, organism-based.
The nature of assay [4]: Inhibition of Trypanosoma brucei trypanothione synthase.
The target in assay [5] is CDK2/Cyclin A2 (Homo sapiens, UniProt P24941). In words: Inhibition of human CDK2/Cyclin A. The assay is classed as protein-complex assay.
Assay [6] in a line: Inhibition of Leishmania mexicana CRK3/CYC6.
The nature of assay [7]: Inhibition of Trypanosoma brucei PTR1 by spectrophotometry. As to conditions: read-out: Ki(app).

Molecules are shown by their SMILES. Some results are limits rather than exact numbers.

In the case of `CN(C)CCCNC(=O)Cn1nc(-c2cccc(F)c2)c2ccccc21`, the EC50 in assay [1] came out at 1.2 µM; in assay [2] it was 23 µM; in assay [3], 7 µM. In addition, half-maximal inhibition in assay [4] (IC50) required 0.045 µM.
On to `O=C(Nc1cc(-c2ccc(Cl)cc2)n[nH]1)C1CCCCC1`, for which the half-maximal inhibitory concentration (IC50) was over 100 µM in assay [5] and 0.34 µM in assay [6].
Taken in the same sequence, the figures for `Cc1cccc(-c2ccc3nc(NC(=O)CCC4CCCC4)nn3c2)c1` were over 100 µM and under 0.005 µM.
In the case of `COc1cccc(NC(=O)NC2=CC(=O)CC(C)(C)C2)c1`, the IC50 in assay [5] is over 100 µM; in assay [6], 0.04 µM.
For the molecule `Nc1nc2ccc(Cl)cc2[nH]1`, the Ki in assay [7] worked out at 11 µM.
For `Nc1nc2ccccc2[nH]1`, the Ki in assay [7] came to 228 µM.

The values are drawn from ChEMBL document CHEMBL2429771, “Drug discovery for neglected diseases: molecular target-based and phenotypic approaches” (J Med Chem, 2013).
